Measured values: BindingDB's records for doi:10.1021/jm051074u (Cephalon, 2007)

Target: Mitogen-activated protein kinase kinase kinase 10 (Homo sapiens, UniProt Q02779)
Test: Mixed-Lineage Kinase Assays
Description: The MLK1, MLK2, and MLK3 assays were performed using the Millipore multiscreen trichloroacetic acid (TCA) in-plate format. IC50 values were calculated by nonlinear regression using the sigmoidal dose-response (variable slope) equation in GraphPad Prism.

Sequence of Mitogen-activated protein kinase kinase kinase 10 (Q02779 whole entry): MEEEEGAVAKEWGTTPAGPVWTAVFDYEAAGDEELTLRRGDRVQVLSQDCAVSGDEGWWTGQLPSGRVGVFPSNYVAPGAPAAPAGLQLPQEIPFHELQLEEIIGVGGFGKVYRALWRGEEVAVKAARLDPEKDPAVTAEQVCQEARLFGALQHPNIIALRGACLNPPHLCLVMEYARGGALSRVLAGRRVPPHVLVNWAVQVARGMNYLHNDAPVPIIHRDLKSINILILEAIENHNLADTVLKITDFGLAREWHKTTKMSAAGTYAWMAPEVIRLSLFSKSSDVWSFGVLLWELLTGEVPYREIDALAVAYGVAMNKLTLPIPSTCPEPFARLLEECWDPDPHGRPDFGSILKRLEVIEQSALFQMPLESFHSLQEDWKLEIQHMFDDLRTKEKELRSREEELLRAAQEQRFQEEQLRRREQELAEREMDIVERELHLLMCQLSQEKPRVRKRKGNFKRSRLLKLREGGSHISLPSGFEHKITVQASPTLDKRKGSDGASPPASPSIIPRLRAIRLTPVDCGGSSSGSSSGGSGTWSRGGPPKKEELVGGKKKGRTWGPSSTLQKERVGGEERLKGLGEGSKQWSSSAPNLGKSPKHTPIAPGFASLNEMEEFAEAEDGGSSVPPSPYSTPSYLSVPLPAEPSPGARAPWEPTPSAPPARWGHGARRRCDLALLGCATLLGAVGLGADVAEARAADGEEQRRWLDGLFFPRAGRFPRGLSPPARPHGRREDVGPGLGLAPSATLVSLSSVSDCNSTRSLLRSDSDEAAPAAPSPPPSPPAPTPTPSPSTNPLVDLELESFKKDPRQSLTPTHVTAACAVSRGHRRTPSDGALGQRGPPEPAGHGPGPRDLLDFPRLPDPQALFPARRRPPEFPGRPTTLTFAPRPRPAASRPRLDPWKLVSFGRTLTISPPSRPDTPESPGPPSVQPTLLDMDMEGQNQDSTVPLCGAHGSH

For `COC(=O)[C@@]1(O)C[C@H]2O[C@]1(C)n1c3ccccc3c3c4c(c5c6ccccc6n2c5c31)C(=O)NC4`, the IC50 was 0.045 µM.
